# Laboratory results published in patent US12269815B2, “Dantrolene prodrugs and methods of their use” (EAGLE RESEARCH LABS LIMITED, priority 2017, dated 2025).
# Where two headings read alike, the source gives them in different places.
# Columns and labels:
# [1] = parameters: species or system Harlan Sprague Dawley rats; conditions: rat, in vivo, 7.5 mg/kg
# Description: Compound 2a is formulated at 8 mg/mL in 5% aqueous mannitol (as a tonicity modifier), at pH 8.0. The formulation is administered IV, SC, or IM to cannulated Harlan Sprague Dawley rats (3 rats/group) from Envigo RMS, Inc. (Indianapolis, Ind.). […] Whole blood (0.1 mL) is collected via a jugular vein catheter at 0, 0.033 (IV only), 0.083, 0.167, 0.33, 0.66, 1, 3, 6, and 9 hours. […] Samples are then placed on wet ice until centrifugation to remove precipitate. […] Samples are quantified based on standard curves prepared with each analyte in the precipitated whole blood matrix. […] Area Under the Curve (AUC) is calculated using the trapezoidal rule by SigmaPlot 12.5 software.
# [2] = not given; remark: listed apart in the source
# [3] = rat, in vivo; for % Bioavailability of dantrolene: 7.5 mg/kg
# [4] = Whole-blood pharmacokinetics of Compound 2a in live rats (second analysis); format: in vivo; conditions: 7.5 mg/kg Compound 2a
# [5] = Another pharmacokinetic analysis of Compound 2a in live rats (whole blood and plasma; IV, IM, SC); format: in vivo; conditions: 7.5 mg/kg Compound 2a
# [6] = physchem; conditions: rat, plasma
# [7] = cited from earlier work
smiles,measurement,setting,value
O=C1CN(/N=C/c2ccc(-c3ccc([N+](=O)[O-])cc3)o2)C(=O)N1COP(=O)([O-])[O-].[Na+].[Na+] [Compound 2a],conversion to dantrolene in phosphate-buffered saline,,no conversion was observed
same,appearance of dantrolene in the blood after administration,[1],rapid appearance of dantrolene in the blood
same,half-life of prodrug in rat plasma,[2],1.37 h
same,amount of 2a observed after administration,[3],only trace amounts
same,% Bioavailability of dantrolene,[3]; im,77.8%
same,% Bioavailability of dantrolene,[3]; iv,100%
same,% Bioavailability of dantrolene,[4]; IM,95.3%
same,% Bioavailability of dantrolene,[4]; IV,100%
same,% Bioavailability of dantrolene,"[5]; plasma, IM",56.7%
same,% Bioavailability of dantrolene,"[5]; plasma, IV",100%
same,% Bioavailability of dantrolene,"[5]; plasma, SC",49.7%
same,% Bioavailability of dantrolene,"[5]; whole blood, IM",80.8%
same,% Bioavailability of dantrolene,"[5]; whole blood, IV",100%
same,% Bioavailability of dantrolene,"[5]; whole blood, SC",64.0%
O=C(O)CCC(=O)OCc1ccc(NC(=O)OCN2C(=O)CN(/N=C/c3ccc(-c4ccc([N+](=O)[O-])cc4)o3)C2=O)cc1 [Compound 17b],half-life at 100 μg/mL,[6],7.45 h
Cl.NCC(=O)OCN1C(=O)CN(/N=C/c2ccc(-c3ccc([N+](=O)[O-])cc3)o2)C1=O [Compound 22c],reconversion in phosphate-buffered saline,,85%
same,half-life of prodrug in rat plasma,[2],0.0533 h
"O=C1CN(/N=C/c2ccc(-c3ccc([N+](=O)[O-])cc3)o2)C(O)=N1 [Dantrolene, 1-{[5-(4-nitrophenyl)-2-furyl]methylideneamino}imidazolidine-2,4-dione]",solubility in water,[7],very poorly soluble in water
